Measurements from article PMC10747736, “In Vitro Activities of Dithiocarbamate Derivatives against Echinococcus multilocularis Metacestode Vesicles” (Tropical Medicine and Infectious Disease, 2023).

Tested on: E. multilocularis metacestode vesicles
Assay: PGI assay (damage marker release) with metacestode vesicles
Format: cell-based, Echinococcus multilocularis
Design: key: Active: Compounds were considered active when they reached 20% of PGI release relative to Triton X-100; Not active: Compounds were considered active when they reached 20% of PGI release relative to Triton X-100
Conditions: overview screen at 10 µM, five days, 20% cut-off relative to Triton X-100
Method: In order to screen disulfiram and dithiocarbamate derivatives as potential new drug candidates, we used an in vitro screening cascade, in which the compounds were first screened against E. multilocularis metacestode vesicles via the phosphoglucose isomerase (PGI) assay, in which metacestode vesicle damage is assessed by the measurement of damage marker (PGI) release (Figure 1, see Section 2.6). […] Subsequently, compounds were assessed in concentration series on E. multilocularis metacestode vesicles via the PGI assay and on GL cell cultures via the CellTiter-Glo assay (see Section 2.9). The testing on mammalian cells as well as metacestode vesicles and GL cell cultures allowed the identification of a potential therapeutic window in vitro.
PGI assays were conducted at the University of Bern as described previously. In short, two-to-three-month-old metacestode vesicles of two to four mm in diameter were purified using 2% sucrose followed by several washing steps in PBS. Purified metacestode vesicles were mixed with two volumes of DMEM without phenol red containing penicillin (100 U/mL) and streptomycin (100 µg/mL). […] Samples were measured on an EnSpire multilabel reader (Perkin Elmer, Waltham, MA, USA). […] Samples were measured on a HIDEX Sense microplate reader (Hidex, Turku, Finland). […]

CCN(CC)C(=S)SSC(=S)N(CC)CC [Disulfiram]
PGI assay (active / not active): Not active
PGI assay (active / not active) (listed as disulfiram): showed no effect
